System: xenogeneic mouse graft versus host disease (GVHD) model
Details: in vivo
Procedure: FIG. 33 depicts a schematic for treatment of a xenogeneic mouse graft versus host disease (GVHD) model with a ruxolitinib and activated Treg cells regimen. PBMC=peripheral blood mononuclear cells.
A xenogeneic mouse graft versus host disease (GVHD) model was treated with a ruxolitinib and activated CB Treg cells regimen, as depicted in FIG. 33. NSG mice underwent sublethal irradiation on day −1 followed by injection of 1×10^7 donor peripheral blood (PB) mononuclear cells (MNCs) on day 0. Oral ruxolitinib at 1 mg daily was fed continuously to the mice in the presence or absence of 1×10^7 CB Treg cells, tagged with CellTrace™ Violet dye (ThermoFisher), administered on days +4, +7, +11, +18. Mice were followed every other day for weight, GVHD score and survival. Serial blood draws were performed to analyze for cell compartment and cytokine assays.

N#CC[C@H](C1CCCC1)n1cc(-c2ncnc3[nH]ccc23)cn1 [ruxolitinib]
CB Treg persistence: improved
